Measurements reported in US8546430B2, “Thalidomide analogs” (P2D, Inc., priority 2003, dated 2013).
“Also recorded” adds a separate entry of the source.

How the values were obtained:
PBMC = assay: Cellular viability of PBMCs by MTS assay; assay type: cell-based, human
Experimental: (§1) The action of the these thiothalidomide analogs in inhibiting TNF-α secretion was assessed in human peripheral blood mononuclear cells (PBMC) and the results are shown in Table 1. Freshly prepared PBMCs were utilized in all studies. Blood, 40 ml, was drawn from a volunteer, immediately mixed with 50 U/ml Na heparin and was diluted to 50 ml total volume with sterile PBS. Samples, 20 ml, of this preparation then were layered on 20 ml Ficoll-Paque and were centrifuged (800 g, 20 min). The Ficoll/serum interface, containing PBMCs, was collected, diluted to 200 ml with PBS, and then was centrifuged (800 g, 15 min) to pellet the cells. Thereafter, the recovered pellet was re-suspended in 37° C. tissue culture medium (RPMI/1 mM Sodium pyruvate/10% heat inactivated FBS/2 mM Glutamax) and placed on ice. Recovered cells were counted, pipetted (200 ul of 5×10^5/ml) into 96 well plates, and incubated for an hour (37° C., 5% CO2). Thereafter, appropriate concentrations of test compounds or vehicle (10 ul DMSO) were added to duplicate wells. Following a further hour of incubation, a 10 ul sample of lipopolysaccharide (LPS) (100 ng/ml in supplemented medium) or vehicle was added to induce stimulated and unstimulated cells, respectively, and the cells were incubated overnight. Sixteen hours later, supernatants were collected for quantification of TNF-α levels by ELISA assay (Pierce-Endogen human TNF-α mini kit, Rockford, Ill.) and the use of specific capture and detection monoclonal antibodies, M303E and M302B (Pierce-Endogen), respectively. ELISA plates were read at λ=450 nm and TNF-α levels were determined from a six-point calibration curve that was run concurrently with the test samples. The effect of test drug concentrations on the cellular viability of PBMCs was assessed by MTS assay (Promega, Madison, Wis.) of the cells that provided the supernatant samples assayed for TNF-α levels, described above. It should be understood that this method can be used to test any of the disclosed compounds as a screening assay for readily determining their TNF-α modulating activity, and for selecting them for use in the disclosed method of treating a subject.

TNF-α = assay: Inhibition of LPS-induced TNF-α secretion in human PBMC (ELISA); assay type: cell-based; conditions: for IC50 / inhibition at 30 µM / % Inhibition at 30 μM: LPS-induced TNF-α production in PBMC; for TNF-α inhibitory activity (in words): LPS-stimulated PBMC
Experimental: as §1

rat aortic ring = assay: Rat aortic ring microvessel growth assay; assay type: cell-based; conditions: 0.1-20 μg/ml daily for 4 days; FIGS. 2-11
Experimental: The angiogenesis modulating activity of representative compounds was assessed in a rat aortic ring microvessel growth assay. Briefly, twelve-well tissue culture plates were coated with 250 μl of Matrigel (Becton-Dickinson, Bedford, Mass.) and allowed to gel for 30 min at 37° C. and 5% CO2. Thoracic aortas were excised from 8- to 10-week-old male Sprague Dawley rats. After careful removal of fibroadipose tissues, the aortas were cut into 1-mm-long cross-sections, placed on Matrigel-coated wells, and covered with an additional 250 μl of Matrigel. After the second layer of Matrigel had set, the rings were covered with EGM-II and incubated overnight at 37° C. and 5% CO2. EGM-II consists of endothelial cell basal medium (EBM-II; Clonetics, San Diego, Calif.) plus endothelial cell growth factors provided as the EGM-II Bulletkit (Clonetics). The culture medium was subsequently changed to EBM-II supplemented with 2% fetal bovine serum, 0.25 μg/ml amphotericin B, and 10 μg/ml gentamicin. Aortic rings were treated daily with either the vehicle (0.5% DMSO), carboxyamidotriazole (CAI, 12 μg/ml), thalidomide or thalidomide analogs (0.1-20 μg/ml) for 4 days and photographed on the 5th day using a ×2.5 objective. CAI, a known antiangiogenic agent, was used at higher than clinically achievable concentration as a positive control. Experiments were repeated four times using aortas from four different rats. The area of angiogenic sprouting, reported in square pixels, was quantified using Adobe PhotoShop. Further details of the method are provided in Luzzio et al., J Med Chem.; 46:3793-9, 2003, which is incorporated by reference herein. It should be understood that this method can be used as an assay to rapidly select compounds having a desired angiogenic or anti-angiogenic effect, for example, for use in the disclosed methods of treating a subject.

IC50 (TNF-α; Homo sapiens) [µM] | melting point [°C] | Compound | Toxicity / cytotoxicity (in words) (PBMC) | Cell viability at 0.3 μM (PBMC) [%] | Cell viability at 3 μM (PBMC) [%] | Cell viability at 30 μM (PBMC) [%] | inhibition at 30 µM (TNF-α; Homo sapiens) [%] | Angiogenic modulating activity (in words) (rat aortic ring) | TNF-α inhibitory activity (in words) (TNF-α) | also measured
20 |  | COC(=O)CCC(C(=O)OC)N1C(=O)c2ccccc2C1=S (centres unmarked) [Compound 208, Dimethyl 2-(1,3-dihydro-1-oxo-3-thioxo-2H-isoindol-2-yl)-pentanedioate] | without toxicity | 96 | 99 | 93 | 56 |  |  | 
> 30 | 157 | O=C(O)CCC(C(=O)O)N1C(=O)c2ccccc2C1=S (centres unmarked) [Compound 211, 2-(1,3-Dihydro-1-oxo-3-thioxo-2H-isoindol-2-yl)-pentanedioic acid] |  | 93 | 93 | 86 | 20 | angiogenic activity at all concentrations tested | lowered potency | 
> 30 | 135 | O=C1CCCC(=S)N1 [Compound 218, 6-Thioxo-2-piperidinone] |  | 86 | 84 | > 100 | 15 |  |  | Inhibition of TNF-α secretion at 30 μM (in words) (TNF-α): minimally inhibited TNF-α secretion
 |  | Nc1ccc2c(=O)n(C3CCC(=O)NC3=O)c(=O)oc2c1 (centres unmarked) [Compound 228, 3-[2′,6′-piperidinedion-3′-yl]-7-amino-2H-1,3-benzoxazine-2,4(3H)-dione] |  |  |  |  |  |  | potent inhibitory action on TNF-α | EC50 (TNF-α; Homo sapiens, PBMC, TNF-α assay of Example 11): 400 nM
 | 114 | O=C1c2ccccc2C(=O)N1C1CC=CCC1 (centres unmarked) [Compound 221, 2-(3-Cyclohexenyl)-1H-isoindole-1,3(2H)-dione] |  |  |  |  |  |  |  | 
 | > 300 | NC(=O)c1cc2ccccc2cc1C(=O)NC1CCC(=O)NC1=O (centres unmarked) [Compound 14, N-(2,6-dioxopiperidin-3-yl)-2,3-naphthalenedicarboxamide] |  |  |  |  |  |  |  | 
 |  | COc1ccc(N2C(=O)c3ccccc3C2=O)c(OC)n1 [Compound 5, 1,3-Dioxo-2-(2,6-dimethoxypyridin-3-yl)-isoindoline] |  |  |  |  |  | angiogenic activity at all concentrations tested |  | 
3 |  | S=C1NC(=S)c2ccccc21 [Compound 224, dithiophthalimide] | associated with toxicity at 30 μM | 83 | 83 | 54 | 95 | angiogenic activity at all concentrations tested | potent activity | 
20 | 263 to 265 | O=C1c2ccccc2C(=O)N1C1CCC(=S)NC1=S (centres unmarked) [Compound 213, 2-(2,6-Dithioxo-3-piperidinyl)-1H-isoindole-1,3(2H)-dione] | induced increasing cytotoxicity at higher concentrations; also recorded: induces toxicity at high concentration | 94 | 87 | 69 | 52 | anti-angiogenic activity at all concentrations tested | less active than dithioglutarimide 219 | 
> 30 | 255 | O=C1CCC(N2C(=O)c3ccccc3C2=S)C(=O)N1 (centres unmarked) [Compound 212, 2,3-Dihydro-3-thioxo-2-(2,6-dioxo-3-piperidinyl)-1H-isoindol-1-one] |  | 94 | 100 | 94 | 23 |  |  | Inhibition of TNF-α secretion at 30 μM (in words) (TNF-α): only marginal activity
16 | 67 to 68 | O=C1c2ccccc2C(=S)N1C1CC=CCC1 (centres unmarked) [Compound 223, 2,3-dihydro-3-thioxo-2-(3-cyclohexenyl)-1H-isoindol-1-one] | some toxicity at 30 μM | 99 | 89 | 57 | 85 |  | active TNF-α inhibitors | 
10 |  | COC(=O)CCC(C(=O)OC)N1C(=S)c2ccccc2C1=S (centres unmarked) [Compound 209, Dimethyl 2-(1,3-dihydro-1,3-dithioxo-2H-isoindol-2-yl)-pentanedioate] | induced cellular toxicity at lower concentrations | 89 | 86 | 57 | 85 |  |  | Fold more potent than 208 (TNF-α; TNF-α inhibitory action): 2 fold
 |  | Monothiophthalimide [Compound 225] | without toxicity | 94 | 94 | > 100 |  |  |  | Inhibition of TNF-α secretion at 30 μM (in words) (TNF-α): marginal TNF-α activity; IC50 (TNF-α): > 30 µM; % Inhibition at 30 μM (TNF-α): 34%
> 30 | 225 to 226 | O=C1NC(=S)CCC1N1C(=O)c2ccccc2C1=O (centres unmarked) [Compound 205, 2-(2-Oxo-6-thioxo-3-piperidinyl)-1H-isoindole-1,3(2H)-dione] |  | 96 | 90 | > 100 | 31 | anti-angiogenic activity at higher concentration, and some angiogenic activity at lower concentrations |  | Inhibition of TNF-α secretion at 30 μM (in words) (TNF-α): only marginal activity
 |  | CC(=O)Oc1ccccc1C(=O)NC1CCC(=O)NC1=O (centres unmarked) [Compound 24, 2-acetoxy-N-(2,6-dioxopiperidin-3-yl)benzamide] |  |  |  |  |  | potent angiogenic activity |  | 
 |  | CC12CCC(C(=O)NC3CCC(=O)NC3=O)(OC1=O)C2(C)C (centres unmarked) [3-Camphanic amino-2,6-piperidinedione] |  |  |  |  |  | potent angiogenic activity at all concentrations tested; also recorded: exhibited angiogenic activity |  | 
 |  | S=C1c2ccccc2C(=S)N1C1CC=CCC1 (centres unmarked) [Compound 222, 2-(3-Cyclohexenyl)-1H-isoindol-1,3(2H)-dithione] | some toxicity at 30 μM | 96 | 94 | 50 |  | anti-angiogenic activity at higher concentrations and angiogenic activity at lower concentrations | active TNF-α inhibitors | IC50 (TNF-α): 15 µM; % Inhibition at 30 μM (TNF-α): 86%
 |  | Br.COc1ccc(N2C(=O)c3ccccc3C2=O)c(O)n1 [Compound 6, 1,3-Dioxo-2-(2-hydroxy-6-methoxypyridin-3-yl)-isoindoline hydrobromide] |  |  |  |  |  | anti-angiogenic activity in the rat aortic ring assay at all concentrations tested |  | 
 |  | O=C1c2ccccc2C(=NCc2ccccc2)N1Cc1ccccc1 [Compound 210, 3-Benzylimino-2-benzyl-2,3-dihydroisoindol-1-one] |  |  |  |  |  | exhibited angiogenic activity |  | 
